Values quoted from earlier work, collected in patent US8124123B2, “Controlled release azithromycin solid dosages forms” (Dow Pharmaceutical Sciences, Inc., priority 2007, dated 2012).

How the values were obtained:
[1] = oral administration; reported with single 1000 mg dose and 1500 mg over 5 days

fraction of azithromycin released into the stomach that may be destroyed (about one hour in the stomach, low pH environment): approximately one third | chemical stability at pH 1 (pH found in stomach contents following a meal): chemically unstable
SMILES: CC[C@H]1OC(=O)[C@H](C)[C@@H](O[C@H]2C[C@@](C)(OC)[C@@H](O)[C@H](C)O2)[C@H](C)[C@@H](O[C@@H]2O[C@H](C)C[C@H](N(C)C)[C@H]2O)[C@](C)(O)C[C@@H](C)CN(C)[C@H](C)[C@@H](O)[C@]1(C)O [azithromycin, 9-deoxo-9a-aza-9a-methyl-9a-homoerythromycin A]
gastrointestinal side effects [1]: dose-related incidence of gastrointestinal side effects
